Results from patent publication US20240050577A1, “CDK INHIBITORS AND PHARMACEUTICAL USES THEREOF” (RISEN (SUZHOU) PHARMA TECH CO., LTD., priority 2022, published 2024).

Assays:
Format in all cases: cell-based
CDK1 protein = target: T1, CDK1 protein (Homo sapiens, UniProt P06493); assay: CDK1 protein degradation in OVCAR3 cells (Western blot); settings: 24 h; for DC50: read-out: DC50 CDK1 (half-maximum degradation concentration); for percent CDK1 protein degradation at 0.05 µM: OVCAR-3, 50 nM test compound, read-out: level of CDK1 protein degradation
T1 construct: host or cells: OVCAR3
Experimental: (§1) OVCAR3 (Cobioer, CBP60294) cell line of exponential growth phase was inoculated on a 6-well cell culture plate (Corning, 3516) according to 3E5/well scheme; and the plate was incubated overnight in a 5%-carbon dioxide incubator at 37° C. The next day, the test compound was dissolved in DMSO (Sigma, RNBF5902) to prepare a 10-mM concentration stock solution. The stock solution was diluted with complete medium, giving working solutions of different concentrations. Working solution was added into the corresponding wells of the orifice plate. The plate was placed in a 5% carbon dioxide incubator, set at 37° C., and incubated for 24 h. The plate was removed from the incubator, and the cells were washed twice with precooled PBS (Gibco, 14190250), followed by addition of 40 μL RIPA lysis buffer (containing protease inhibitor (Invitrogen™, AM2696)) to each well. Adherent cells were scraped off with a cell scraper, and the cell lysate was transferred to a 1.5 mL centrifuge tube, and the tube was placed on ice for 30 minutes. After completion of cell lysis, the tube was centrifugated for 10 min at 4° C., 14000 rpm. The supernatant was transferred into a new 1.5-mL centrifuge tube, and the new tube was placed on ice, followed by measurement of the protein concentration with BCA protein detection kit (Thermo Fisher, 23225). A mixture of cell lysate (40 μL) and loading buffer (10 μL, 5×SDS (Beyotime, P0015L)) was placed into a water bath at 95° C. for 10 min to denature the protein. The denatured protein sample, 30 μL/well, was added into a corresponding well of 4-20% Bis-Tris gel (Kingsley, M00657). The initial voltage was adjusted to 80-V and run for 30 min, followed by voltage increased to 120 V, and run for another 40 min, until the strip had run to the appropriate position. After electrophoresis, iBlot2 (Life Technologies, IB21001) was used to transfer the film under the condition of 20 V and 7 min. At the end of film transfer, 5% skimmed milk powder was sealed at room temperature for 2 h, and then TBST (Thermo Scientific, 28360) buffer solution was used to rinse for three times, 10 minutes each time. Skimmed milk powder (5%) was diluted with the first antibody in the appropriate proportion, and the working solution of the first antibody was prepared and incubated overnight at 4° C. After the incubation of the first antibody, the membrane was washed three times at room temperature with TBST buffer solution, 10 minutes each time; and the second antibody was incubated with 5% skimmed milk powder at room temperature for 1 h. After washing the film for three times with TBST, ECL color developing solution (Thermofisher 34095) was added, and an image was taken on a Biorad Chemi Doc gel imager. The band gray value was analyzed (Image Lab).
(§2) Symbols of “−”, “+”, “++”, and “+++” indicate that the degradation level of CDK protein induced by test compound was 10% or less, 11 to 30%, 31 to 60%, and greater than 60%, respectively.
(§3) Half-maximum degradation concentrations (DC50s) of test compounds were calculated using GraphPad Prism and their values are shown in Table 4. Symbols of “++++”, “+++”, “++”, “+” and “−” represent DC50s equal or less than 10 nM, 11-50 nM, 51-100 nM, 101-200 nM, and >200 nM, respectively.

CDK6 protein = target: T2, CDK6 protein (Homo sapiens, UniProt Q00534); assay: CDK6 protein degradation in OVCAR3 cells (Western blot); settings: 24 h; for DC50: read-out: DC50 CDK6 (half-maximum degradation concentration); for percent CDK6 protein degradation at 0.05 µM: OVCAR-3, 50 nM test compound, read-out: level of CDK6 protein degradation
T2 construct: host or cells: OVCAR3
Experimental: as §1, §2, §3

CDK2 protein = target: T3, CDK2 protein (Homo sapiens, UniProt P24941); assay: CDK2 protein degradation in OVCAR3 cells (Western blot); settings: 24 h; for level of CDK2 protein degradation: 50 nM test compound; for DC50: read-out: DC50 CDK2 (half-maximum degradation concentration)
T3 construct: host or cells: OVCAR3
Experimental: as §1, §2, §3

CDK4 protein = target: T4, CDK4 protein (Homo sapiens, UniProt P11802); assay: CDK4 protein degradation in OVCAR3 cells (Western blot); settings: 24 h; for DC50: read-out: DC50 CDK4 (half-maximum degradation concentration); for percent CDK4 protein degradation at 0.05 µM: OVCAR-3, 50 nM test compound, read-out: level of CDK4 protein degradation
T4 construct: host or cells: OVCAR3
Experimental: as §1, §2, §3

OVCAR3 cells = assay: Cell proliferation study (Cell Titer Glo, 72 h); settings: Homo sapiens, OVCAR-3, luminescence, read-out: IC50, inhibitory effect on cellular proliferation

T2 sequence (Q00534 whole entry): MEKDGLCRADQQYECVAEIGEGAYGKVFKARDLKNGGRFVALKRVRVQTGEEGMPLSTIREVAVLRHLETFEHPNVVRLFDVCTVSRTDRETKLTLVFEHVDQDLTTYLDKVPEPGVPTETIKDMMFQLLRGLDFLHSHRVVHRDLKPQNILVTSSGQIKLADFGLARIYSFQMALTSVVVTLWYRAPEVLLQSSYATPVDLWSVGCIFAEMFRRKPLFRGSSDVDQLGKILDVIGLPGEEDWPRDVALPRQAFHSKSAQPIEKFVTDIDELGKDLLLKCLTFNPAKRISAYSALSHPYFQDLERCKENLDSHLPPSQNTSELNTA
T1 sequence (P06493 whole entry): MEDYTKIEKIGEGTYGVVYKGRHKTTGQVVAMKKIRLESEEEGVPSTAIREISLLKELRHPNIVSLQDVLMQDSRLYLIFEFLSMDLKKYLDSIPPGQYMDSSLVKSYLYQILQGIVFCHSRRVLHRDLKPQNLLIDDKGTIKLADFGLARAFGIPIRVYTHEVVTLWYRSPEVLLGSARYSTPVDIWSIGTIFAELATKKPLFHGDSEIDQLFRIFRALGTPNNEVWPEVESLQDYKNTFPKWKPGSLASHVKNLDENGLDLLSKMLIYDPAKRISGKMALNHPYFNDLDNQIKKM
T4 sequence (P11802 whole entry): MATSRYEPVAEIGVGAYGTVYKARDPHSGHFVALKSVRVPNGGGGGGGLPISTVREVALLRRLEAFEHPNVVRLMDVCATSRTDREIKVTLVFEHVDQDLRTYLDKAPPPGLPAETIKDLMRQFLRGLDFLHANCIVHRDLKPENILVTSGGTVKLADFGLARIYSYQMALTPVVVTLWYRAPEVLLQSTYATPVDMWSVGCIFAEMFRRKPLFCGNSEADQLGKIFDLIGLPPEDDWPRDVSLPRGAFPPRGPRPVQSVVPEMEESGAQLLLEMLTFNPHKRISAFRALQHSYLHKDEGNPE

Row | Structure (SMILES) | DC50 (CDK1 protein) [µM] | percent CDK1 protein degradation at 0.05 µM (CDK1 protein) [%] | DC50 (CDK6 protein) [µM] | percent CDK6 protein degradation at 0.05 µM (CDK6 protein) [%] | level of CDK2 protein degradation (CDK2 protein) | DC50 (CDK2 protein) [µM] | DC50 (CDK4 protein) [µM] | percent CDK4 protein degradation at 0.05 µM (CDK4 protein) [%] | IC50 (OVCAR3 cells) [µM]
1 | Cc1nc2c(F)cc(-c3nc(NC4CCN(S(=O)(=O)C5CCN(CC6CC7(C6)CN(c6cc8c(cc6F)C(=O)N(C6CCC(=O)NC6=O)C8=O)C7)CC5)CC4)ncc3F)cc2n1C(C)C (stereo not drawn) [Compound 88] | 0.011 to 0.05 | 31 to 60 | > 0.2 | > 60 | +++ (greater than 60%) | 0.101 to 0.2 | > 0.2 | ≤ 10 | < 0.1
2 | C[C@@]1(O)CCC[C@H]1n1c(=O)ccc2cnc(NC3CCN(S(=O)(=O)C4CCN(CC5CCN(C6CN(c7cc8c(cc7F)C(=O)N(C7CCC(=O)NC7=O)C8=O)C6)CC5)CC4)CC3)nc21 (stereo partly drawn) [Compound 95] | 0.011 to 0.05 | > 60 | < 0.01 | > 60 | ++ (31 to 60%) | 0.051 to 0.1 | > 0.2 | 31 to 60 | 0.101 to 1
3 | C[C@@]1(O)CCC[C@H]1n1c(=O)c(C(F)F)cc2cnc(NC3CCN(S(=O)(=O)C4CCN(CC5CCN(C6CN(c7cc8c(cc7F)C(=O)N(C7CCC(=O)NC7=O)C8=O)C6)CC5)CC4)CC3)nc21 (stereo partly drawn) [Compound 37] | < 0.01 | > 60 | > 0.2 | > 60 | +++ (greater than 60%) | < 0.01 | > 0.2 | ≤ 10 | < 0.1
4 | Cc1nc2c(F)cc(-c3nc(NC4CCN(S(=O)(=O)C5CCN(CC6CCN(C7CN(c8cc9c(cc8F)C(=O)N(C8CCC(=O)NC8=O)C9=O)C7)CC6)CC5)CC4)ncc3F)cc2n1C(C)C (stereo not drawn) [Compound 80] | > 0.2 | ≤ 10 | < 0.01 | > 60 | ++ (31 to 60%) | > 0.2 | > 0.2 | ≤ 10 | < 0.1
5 | Cc1nc2c(F)cc(-c3nc(Nc4ccc(S(=O)(=O)C5CCN(C6CCN(C7CN(c8cc9c(cc8F)C(=O)N(C8CCC(=O)NC8=O)C9=O)C7)CC6)CC5)cc4)ncc3F)cc2n1C(C)C (stereo not drawn) [Compound 64] | > 0.2 | > 60 | > 0.2 | > 60 | +++ (greater than 60%) | > 0.2 | > 0.2 | ≤ 10 | < 0.1
6 | Cc1nc2c(F)cc(-c3nc(NC4CCN(S(=O)(=O)C5CCN(C6CCN(C7CN(c8cc9c(cc8F)C(=O)N(C8CCC(=O)NC8=O)C9=O)C7)CC6)CC5)CC4)ncc3F)cc2n1C(C)C (stereo not drawn) [Compound 83] | 0.101 to 0.2 | 31 to 60 | 0.101 to 0.2 | > 60 | ++ (31 to 60%) | 0.101 to 0.2 | > 0.2 | ≤ 10 | < 0.1
7 | Cc1nc2c(F)cc(-c3nc(NC4CCN(S(=O)(=O)C5CCN(C6CN(C7CCN(c8cc9c(cc8F)C(=O)N(C8CCC(=O)NC8=O)C9=O)CC7)C6)CC5)CC4)ncc3F)cc2n1C(C)C (stereo not drawn) [Compound 79] | < 0.01 | > 60 | < 0.01 | > 60 | +++ (greater than 60%) | < 0.01 | > 0.2 | ≤ 10 | < 0.1
8 | C[C@@]1(O)CCC[C@H]1n1c(=O)ccc2cnc(NC3CCN(S(=O)(=O)C4CCN(C5CC6(CCN(c7cc8c(cc7F)C(=O)N(C7CCC(=O)NC7=O)C8=O)CC6)C5)CC4)CC3)nc21 (stereo partly drawn) [Compound 94] | < 0.01 | > 60 | > 0.2 | > 60 | +++ (greater than 60%) | < 0.01 | > 0.2 | 11 to 30 | 1 to 5
